According to patent US20260224594A1, “COMPOSITION FOR TREATING CANCER CACHEXIA, COMPRISING DIFLUNISAL OR A PHARMACEUTICALLY ACCEPTABLE SALT THEREOF” (ANIMUSCURE INC., priority 2023, published 2026):

Tests used:
[1] = tested on: C2C12 myoblast cells; assay: Cytotoxicity of diflunisal, MTT assay; type: cell-based, mouse; conditions: approximately 10,000 nM, 18 hours, vs control
Experimental: C2C12 is a myoblast cell line obtained from the C3H mouse strain, and is widely used to study muscle cell differentiation. The cells were cultured in a cell culture medium (growth medium (GM)), and muscle cell differentiation was induced in a differentiation medium (DM). DMEM containing 15% fetal bovine serum (FBS) was used as the cell culture medium, and DMEM containing 2% horse serum was used as the differentiation medium.
The cytotoxicity of diflunisal (CAS No. 22494-42-4, W06) was evaluated using an MTT assay. C2C12 myoblast cells were treated with diflunisal at concentrations of 0, 1, 10, 100, 1,000, and 10,000 nM for 18 hours, and cell viability was then confirmed using the MTT assay. Myoblast cells (1.0×10^4 cells/96 well) were allowed to react with 5 mg/mL MTT for 4 hours in a cell culture medium, and the eluted reaction product was then measured for absorbance at 570 nm.

[2] = tested on: C2C12 cell lines; assay: Muscle cell differentiation, MHC immunofluorescence staining and myotube diameter; type: cell-based, mouse; conditions: 10, 100, 1,000, 10,000 nM, day 3 of differentiation induction
Experimental: (§1) C2C12 is a myoblast cell line obtained from the C3H mouse strain, and is widely used to study muscle cell differentiation. The cells were cultured in a cell culture medium (growth medium (GM)), and muscle cell differentiation was induced in a differentiation medium (DM). DMEM containing 15% fetal bovine serum (FBS) was used as the cell culture medium, and DMEM containing 2% horse serum was used as the differentiation medium. To induce muscle cell differentiation, cells were seeded in a cell culture medium and cultured. When the density of cells reached approximately 80% to 90%, the medium was replaced with a differentiation medium, and differentiation was induced for approximately 2 to 3 days. To analyze the effect of diflunisal on the differentiation of muscle stem cells, MHC immunofluorescence staining was performed (FIG. 2). […] On day 3 of differentiation induction, immunofluorescence staining was performed using an MHC antibody to compare and analyze the degree of myotube formation.

[3] = tested on: C2C12 cell lines; assay: Immunoblotting of differentiation markers MHC and myogenin; type: cell-based, mouse; conditions: positive control ursolic acid (UA)
Experimental: as §1, with “formation. […] In addition, the expression levels of differentiation markers were confirmed through immunoblotting.” for “formation.”

[4] = tested on: C2C12 myoblast cells; assay: Myoblast proliferation, BrdU staining; type: cell-based, mouse; conditions: 1 μM, approximately 20 hours
Experimental: To analyze the effect of diflunisal on the proliferation of myoblast cells, a BrdU staining experiment was performed. C2C12 myoblast cells were treated with DMSO as a control or diflunisal (1 μM) for approximately 20 hours, and then allowed to react with BrdU for 15 minutes. Thereafter, immunofluorescence staining was performed using an antibody against BrdU (FIG. 5A). As a result, it was confirmed that the proliferation of myoblast cells increased in the group treated with diflunisal.

[5] = tested on: Pax7; assay: Pax7 mRNA expression (qRT-PCR); type: cell-based, mouse; conditions: C2C12 cells treated with diflunisal
From the text: FIGS. 5A-5B and 6 show the results of confirming the stem cell differentiation-promoting effect through administration of diflunisal. […] In addition, it was confirmed whether the expression level of Pax7, which is a muscle proliferation marker, increased due to diflunisal treatment.

[6] = tested on: C57BL/6 male mice with CTX-induced muscle damage; assay: Stem cell proliferation in cardiotoxin (CTX) muscle damage animal model, BrdU staining of TA muscle; type: in vivo, mouse; conditions: oral 0.02 mg/kg for 2 weeks, CTX injection, then 0.02 mg/kg for 3 days
Experimental: C57BL/6 male mice were orally administered diflunisal at a dose of 0.02 mg/kg for 2 weeks, and then on the second week, 10 μM cardiotoxin (CTX) was directly injected into the muscle at 2 μL per g of body weight to induce muscle damage. Thereafter, diflunisal was administered at a dose of 0.02 mg/kg for 3 days. Then, immunofluorescence staining was performed on the TA muscle tissue of the mice using a BrdU antibody. […] Also, a quantitative comparison confirmed that the proportion of BrdU-positive cells increased by more than 2.5 times compared to the control when the cells were treated with diflunisal (FIG. 8).

[7] = tested on: C2C12 myoblast cells; assay: Dexamethasone (DEX)-induced muscle atrophy in C2C12 myotubes; type: cell-based, mouse; conditions: 100 μM DEX pretreatment 4 hours, diflunisal 1 μM, 24 hours in DM
Experimental: To determine whether diflunisal could recover or protect muscles from dexamethasone (DEX)-induced muscle atrophy, this experiment was performed using C2C12 myoblast cells. C2C12 myoblast cells were differentiated in a differentiation medium (DM) for 2 days, pretreated with 100 μM DEX for 4 hours, and then treated with diflunisal (1 μM) together with DMSO as a vehicle. Then, the C2C12 myoblast cells were further cultured in DM for 24 hours. Immunofluorescence staining was performed on dexamethasone-treated C2C12 myotube cells using an MHC antibody to compare and analyze the degree of myotube formation. […] Also, when the expression level of atrogin-1, which is a muscle atrophy marker, was confirmed through immunoblotting, it was confirmed that its expression increased when dexamethasone was administered.

[8] = tested on: muscle cells (myotubes) in cancer cell culture medium (CM); assay: Cachexia induced by cancer cell culture medium (CM) in muscle cells; type: cell-based; conditions: 10, 100, 1,000 nM
Experimental: To confirm the amelioration effect of diflunisal on cancer cachexia, cancer cachexia was induced in muscle cells using a cancer cell culture medium (CM) (FIG. 11, top). […] Also, the diameter of the myotubes was measured to confirm the improvement.

[9] = tested on: C57BL/6 mice injected with Lewis lung carcinoma; assay: Cancer cachexia animal model (Lewis lung carcinoma injected mice); type: in vivo, mouse
Experimental: Lewis lung carcinoma (LCC, 5×10^6 cells/mice) was injected into C57BL/6 mice to induce lung cancer. Two weeks after injection, diflunisal was orally administered daily for 21 days at a dose of 0.02 or 0.2 mpk (FIG. 13). Thereafter, the changes in body weight, tumor weight, and tumor-free body weight for each mouse were measured. […] To compare the motor ability in the cancer cachexia-induced mouse model, a grip strength test was conducted for each experimental group. […]

[10] = cancer cachexia-induced mice, diflunisal administered

SMILES: O=C(O)c1cc(-c2ccc(F)cc2F)ccc1O [diflunisal]
- cell viability (MTT assay) [1]: almost similar to that of the control
- diameter of myotubes [2]: increased in a concentration-dependent manner
- muscle cell differentiation (myotube formation, MHC immunofluorescence) ([2]; vs DMSO control): promoted in a concentration-dependent manner
- expression of differentiation marker MHC (immunoblotting) [3]: induced an increase in the expression
- expression of differentiation marker myogenin (immunoblotting) [3]: induced an increase in the expression
- proliferation of myoblast cells (BrdU immunofluorescence staining) ([4]; vs DMSO): increased
- proportion of BrdU-positive cells ([4]; vs DMSO control): significantly increased compared to the control
- relative expression level of Pax7 mRNA [5]: increased
- increase of proportion of BrdU-positive cells compared to the control ([6]; TA muscle): more than 2.5 times
- proliferation of myoblast cells in TA muscle (BrdU staining) [6]: increased
- MHC expression (immunofluorescence) after dexamethasone-induced atrophy [7]: restored
- MuRF1 expression (qRT-PCR) [7]: significantly reduced
- expression level of atrogin-1 (muscle atrophy marker, immunoblotting) [7]: decreased again
- diameter of myotubes in CM-induced cancer cachexia model [8]: increased in a concentration-dependent manner
- tumor-free body weight ([9]; 0.02 mpk oral daily for 21 days, vs cancer-induced group): significantly increased compared to the cancer-induced group
- grip strength (motor ability) ([9]; 0.02 or 0.2 mpk oral daily for 21 days, vs cancer-induced group): increased in a concentration-dependent manner
- muscle mass loss of hindlimb muscles (TA, EDL, SOL, GA) [9, 10]: significantly improved
- reduction in fat and organ weights (white fat, visceral fat, liver, heart, spleen) [9, 10]: improved
- relative mRNA expression level of MuRF-1 [9, 10]: decreased again
- relative mRNA expression level of atrogin-1 [9, 10]: decreased again
- change (decrease) in tumor-free body weight ([9]; oral daily for 21 days, 0.02 or 0.2 mpk): improved
- overall body weight ([9]; oral daily for 21 days, 0.02 or 0.2 mpk, all experimental groups): no significant change
